Experimental data published in patent publication US12134610B2, “Somatostatin subtype-2 receptor (SST2R) targeted therapeutics and uses thereof” (priority 2022, dated 2024).
Where two headings read alike, the source gives them in different places. Starred links: 1 amine or outer side, 2 acyl side, 3 side chain; linkers in the order of their positions; H or OH if unused. Non-standard residues stand in square brackets, D forms with d. Residues, ends and D or L forms follow the SMILES beside them. *: point of attachment. X4 = Cc1cc(F)cc(-c2cnc(NCCNC(=O)CCOCCOCCOCCOCCC(=O)*)c(-c3nc4ccc(Cl)cc4[nH]3)c2N2CCC(N)CC2)c1; PABC(3-O-βDGlc) = O=C(OCc1ccc(N[*:1])c(O[C@@H]2O[C@H](CO)[C@@H](O)[C@H](O)[C@H]2O)c1)[*:2]; X1 = Cc1cc(F)cc(-c2cnc(NCCNC(=O)CCOCCC(=O)*)c(-c3nc4ccc(Cl)cc4[nH]3)c2N2CCC(N)CC2)c1; Dolaproine = CO[C@@H]([C@@H]1CCCN1)[C@@H](C)C(=O)O; Dil = CC[C@H](C)[C@H](NC)[C@@H](CC(=O)O)OC; PABC = O=C(OCc1ccc(N[*:1])cc1)[*:2]; X2 = C[C@@H](N*)[C@@H](O)c1ccccc1; Cya = N[C@@H](CS(=O)(=O)O)C(=O)O; Cit = NC(=O)NCCC[C@H](N)C(=O)O; NMeV = CN[C@H](C(=O)O)C(C)C

How the values were obtained:
Type in all cases: cell-based
SST2 = biological target: T1, SST2 (Homo sapiens, UniProt P30874); assay: PathHunter CHO-K1 SST2 internalization assay; conditions: PathHunter CHO-K1 SST2, 90 min
T1 construct: host or cells: PathHunter CHO-K1 SST2 cells
T1 sequence (P30874 whole entry): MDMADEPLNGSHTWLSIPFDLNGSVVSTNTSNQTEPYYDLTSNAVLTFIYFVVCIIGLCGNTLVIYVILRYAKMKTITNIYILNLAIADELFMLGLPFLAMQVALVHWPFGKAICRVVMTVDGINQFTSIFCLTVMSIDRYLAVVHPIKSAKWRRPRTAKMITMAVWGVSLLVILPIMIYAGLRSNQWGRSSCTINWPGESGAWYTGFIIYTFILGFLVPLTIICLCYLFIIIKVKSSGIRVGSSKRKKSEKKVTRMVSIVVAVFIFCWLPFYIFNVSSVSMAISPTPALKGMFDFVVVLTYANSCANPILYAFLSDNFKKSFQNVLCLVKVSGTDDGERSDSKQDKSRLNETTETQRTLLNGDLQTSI
Outline: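 PathHunter CHO-K1 SST2 cells, seeded and grown 48 h, were exposed to 11-point 1:3 dilutions of SMDC (top final 10 uM) for 90 min at 37 C, 5% CO2. Beta-Glo luminescence was read after 60 min at room temperature. Background-corrected duplicate means were fitted by four-parameter nonlinear regression to give IC50.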

[1] = biological target: T2, human somatostatin receptor subtype 2 (Homo sapiens, UniProt P30874); assay: Functional cAMP assay for SSTR2 agonists (HTRF) in CHO-K1 cells; conditions: CHO-K1 cells stably expressing human SST2, 20 min
T2 construct: expressed in transfected cells
T2 sequence (P30874 whole entry): as above
Outline: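 CHO-K1 cells stably expressing receptor, plated 4 days before assay, treated 20 min at 37° C. with compound (typically 0-10,000 nM final) plus IBMX and 1.6 μM NKH477 to raise cAMP. HTRF read, 665/620 nm ratio; cAMP from standard curve, EC50 fitted.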

[2] = tested on: NCI-H524 (ATCC) human small cell lung cancer cells
Outline: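 NCI-H524 cells (5,000/well) were exposed 24 h after plating to SMDC for 2 h, 11-point two-fold series from 1 uM. After washout they grew a further 70 h. Proliferation was read by CellTiter-Glo luminescence, % inhibition taken vs untreated control, and IC50 fitted by four-parameter nonlinear regression.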

[3] = 2 h treatment, washout, additional 70 h, read-out: H524 EC50

Structure (SMILES) | EC50 (SST2; Internalization EC50 (nM)) [nM] | EC50 ([1]; hSST2 cAMP Avg EC50 (nM)) [nM] | EC50 [2, 3] [nM] | EC50 (SST2; read-out: Internalization EC50) [nM] | EC50 ([1]; read-out: hSST2 cAMP Avg EC50) [nM] | EC50 ([2]; 2 h) [nM]
CC[C@@]1(O)C(=O)OCc2c1cc1n(c2=O)Cc2c-1nc1cc(F)c(C)c3c1c2[C@@H](NC(=O)OCc1ccc(NC(=O)[C@H](CCCNC(N)=O)NC(=O)[C@@H](NC(=O)CCOCCC(=O)NCCNc2ncc(-c4cc(C)cc(F)c4)c(N4CCC(N)CC4)c2-c2nc4ccc(Cl)cc4[nH]2)C(C)C)cc1C(=O)NCCN)CC3 [Compound 90] | 4.8 | 0.22 | 71 | – | – | –
CC[C@@]1(O)C(=O)OCc2c1cc1n(c2=O)Cc2c-1nc1cc(F)c(C)c3c1c2[C@@H](NC(=O)OCc1ccc(NC(=O)[C@H](C)NC(=O)[C@@H](NC(=O)CCOCCC(=O)NCCNc2ncc(-c4cc(C)cc(F)c4)c(N4CCC(N)CC4)c2-c2nc4ccc(Cl)cc4[nH]2)C(C)C)c(O[C@@H]2O[C@H](C(=O)O)[C@@H](O)[C@H](O)[C@H]2O)c1)CC3 [Compound 65] | 1.5 | 0.27 | 250 | – | – | –
CC[C@H](C)[C@@H]([C@@H](CC(=O)N1CCC[C@H]1[C@H](OC)[C@@H](C)C(=O)N[C@H](C)[C@@H](O)c1ccccc1)OC)N(C)C(=O)[C@@H](NC(=O)[C@H](C(C)C)N(C)C(=O)OCc1ccc(NC(=O)[C@H](CCCNC(N)=O)NC(=O)[C@@H](NC(=O)[C@H](CCC(=O)O)NC(=O)CCOCCC(=O)NCCNc2ncc(-c3cc(C)cc(F)c3)c(N3CCC(N)CC3)c2-c2nc3ccc(Cl)cc3[nH]2)C(C)C)c(O[C@@H]2O[C@H](CO)[C@@H](O)[C@H](O)[C@H]2O)c1)C(C)C [Compound 135] (X1-EV[Cit][PABC(3-O-βDGlc)][NMeV]V[Dil][Dolaproine]-X2) | – | – | – | 2.8 | 0.15 | 38
COc1cc2cc(c1Cl)N(C)C(=O)CC(OC(=O)[C@@H](C)N(C)C(=O)CCSSCCOCCOCCOCCOCCOCCOCCOCCOCCC(=O)NCCNc1ncc(-c3cc(C)cc(F)c3)c(N3CCC(N)CC3)c1-c1nc3ccc(Cl)cc3[nH]1)[C@]1(C)OC1[C@@H](C)C1C[C@@](O)(NC(=O)O1)[C@H](OC)/C=C/C=C(\C)C2 (stereo partly drawn) [Compound 22] | – | – | – | 26 | 0.36 | 27.1
CC[C@H](C)[C@@H]([C@@H](CC(=O)N1CCC[C@H]1[C@H](OC)[C@@H](C)C(=O)N[C@H](C)[C@@H](O)c1ccccc1)OC)N(C)C(=O)[C@@H](NC(=O)[C@H](C(C)C)N(C)C(=O)OCc1ccc(NC(=O)[C@H](C)NC(=O)[C@@H](NC(=O)CCOCCOCCC(=O)NCCNc2ncc(-c3cc(C)cc(F)c3)c(N3CCC(N)CC3)c2-c2nc3ccc(Cl)cc3[nH]2)C(C)C)c(O[C@@H]2O[C@H](C(=O)O)[C@@H](O)[C@H](O)[C@H]2O)c1)C(C)C [Compound 149] | – | – | – | 5.2 | 0.099 | 5
CC[C@H](C)[C@@H]([C@@H](CC(=O)N1CCC[C@H]1[C@H](OC)[C@@H](C)C(=O)N[C@H](C)[C@@H](O)c1ccccc1)OC)N(C)C(=O)[C@@H](NC(=O)[C@H](C(C)C)N(C)C(=O)CNC(=O)[C@H](Cc1ccccc1)NC(=O)CNC(=O)CNC(=O)CCOCCC(=O)NCCNc1ncc(-c2cc(C)cc(F)c2)c(N2CCC(N)CC2)c1-c1nc2ccc(Cl)cc2[nH]1)C(C)C [Compound 34] (X1-GGFG[NMeV]V[Dil][Dolaproine]-X2) | 21.8 | 0.16 | 3140 | – | – | –
CC[C@H](C)[C@@H]([C@@H](CC(=O)N1CCC[C@H]1[C@H](OC)[C@@H](C)C(=O)N[C@H](C)[C@@H](O)c1ccccc1)OC)N(C)C(=O)[C@@H](NC(=O)[C@H](C(C)C)N(C)C(=O)OCc1ccc(NC(=O)[C@H](CCCNC(N)=O)NC(=O)[C@@H](CC(=O)CCOCCNCCNc2ncc(-c3cc(C)cc(F)c3)c(N3CCC(N)CC3)c2-c2nc3ccc(Cl)cc3[nH]2)C(C)C)cc1C(=O)NCCN)C(C)C [Compound 87] | – | – | – | 26 | 0.4 | 42
CC[C@H](C)[C@@H]([C@@H](CC(=O)N1CCC[C@H]1[C@H](OC)[C@@H](C)C(=O)N[C@H](C)[C@@H](O)c1ccccc1)OC)N(C)C(=O)[C@@H](NC(=O)[C@H](C(C)C)N(C)C(=O)OCc1ccc(NC(=O)[C@H](C)NC(=O)[C@@H](NC(=O)CCCC(=O)N(C)CC(=O)NCCNc2ncc(-c3cc(C)cc(F)c3)c(N3CCC(N)CC3)c2-c2nc3ccc(Cl)cc3[nH]2)C(C)C)c(O[C@@H]2O[C@H](C(=O)O)[C@@H](O)[C@H](O)[C@H]2O)c1)C(C)C [Compound 140] | – | – | – | 1.8 | 0.33 | 5.4
CC[C@H](C)[C@@H]([C@@H](CC(=O)N1CCC[C@H]1[C@H](OC)[C@@H](C)C(=O)N[C@H](C)[C@@H](O)c1ccccc1)OC)N(C)C(=O)[C@@H](NC(=O)[C@H](C(C)C)N(C)C(=O)OCc1ccc(NC(=O)[C@H](CCCNC(N)=O)NC(=O)[C@@H](NC(=O)[C@H](CS(=O)(=O)O)NC(=O)[C@H](CCC(=O)O)NC(=O)CCOCCOCCOCCOCCC(=O)NCCNc2ncc(-c3cc(C)cc(F)c3)c(N3CCC(N)CC3)c2-c2nc3ccc(Cl)cc3[nH]2)C(C)C)cc1)C(C)C [Compound 114] (X4-E[Cya]V[Cit][PABC][NMeV]V[Dil][Dolaproine]-X2) | – | – | – | 10 | 0.22 | 100
CC[C@H](C)[C@@H]([C@@H](CC(=O)N1CCC[C@H]1[C@H](OC)[C@@H](C)C(=O)N[C@H](C)[C@@H](O)c1ccccc1)OC)N(C)C(=O)[C@H](C)NC(=O)[C@H](C(C)C)N(C)C(=O)OCc1ccc(NC(=O)[C@@H](NC(=O)[C@@H](NC(=O)CCN(C)CCC(=O)NCCNc2ncc(-c3cc(C)cc(F)c3)c(N3CCC(N)CC3)c2-c2nc3ccc(Cl)cc3[nH]2)C(C)C)C(C)C)c(O[C@@H]2O[C@H](C(=O)O)[C@@H](O)[C@H](O)[C@H]2O)c1 [Compound 154] | – | – | – | 25 | 0.16 | 29
CC[C@H](C)[C@@H]([C@@H](CC(=O)N1CCC[C@H]1[C@H](OC)[C@@H](C)C(=O)N[C@H](C)[C@@H](O)c1ccccc1)OC)N(C)C(=O)[C@@H](NC(=O)[C@H](C(C)C)N(C)C(=O)OCc1ccc(NC(=O)[C@H](C)NC(=O)[C@@H](NC(=O)[C@H](CCC(=O)O)NC(=O)CCCCCC(=O)NCCNc2ncc(-c3cc(C)cc(F)c3)c(N3CCC(N)CC3)c2-c2nc3ccc(Cl)cc3[nH]2)C(C)C)cc1C(=O)NCCN)C(C)C [Compound 120] | – | – | – | 2.7 | 0.19 | 2.4
CC[C@H](C)[C@@H]([C@@H](CC(=O)N1CCC[C@H]1[C@H](OC)[C@@H](C)C(=O)N[C@H](C)[C@@H](O)c1ccccc1)OC)N(C)C(=O)[C@@H](NC(=O)[C@H](C(C)C)N(C)C(=O)OCc1ccc(NC(=O)[C@H](CCCNC(N)=O)NC(=O)[C@@H](NC(=O)[C@@H](CCC(=O)O)NC(=O)CCOCCC(=O)NCCNc2ncc(-c3cc(C)cc(F)c3)c(N3CCC(N)CC3)c2-c2nc3ccc(Cl)cc3[nH]2)C(C)C)cc1C(=O)NCCN)C(C)C [Compound 101] | – | – | – | 6.7 | 0.22 | 34
CC[C@H](C)[C@@H]([C@@H](CC(=O)N1CCC[C@H]1[C@H](OC)[C@@H](C)C(=O)N[C@H](C)[C@@H](O)c1ccccc1)OC)N(C)C(=O)[C@@H](NC(=O)[C@H](C(C)C)N(C)C(=O)OCc1ccc(NC(=O)[C@H](CCCNC(N)=O)NC(=O)[C@@H](NC(=O)CCOCCOCCOCCOCCC(=O)NCCNc2ncc(-c3cc(C)cc(F)c3)c(N3CCC(N)CC3)c2-c2nc3ccc(Cl)cc3[nH]2)C(C)C)c(O[C@@H]2O[C@H](C(=O)O)[C@@H](O)[C@H](O)[C@H]2O)c1)C(C)C [Compound 62] | – | – | – | 14 | 0.2 | 61.2
CC[C@H](C)[C@@H]([C@@H](CC(=O)N1CCC[C@H]1[C@H](OC)[C@@H](C)C(=O)N[C@H](C)[C@@H](O)c1ccccc1)OC)N(C)C(=O)[C@@H](NC(=O)[C@H](C(C)C)N(C)C(=O)OCc1ccc(NC(=O)[C@H](CCCNC(N)=O)NC(=O)[C@@H](NC(=O)CCCC(=O)N(C)CC(=O)N(C)CC(=O)N(C)CC(=O)N(C)CC(=O)N(C)CC(=O)NCCNc2ncc(-c3cc(C)cc(F)c3)c(N3CCC(N)CC3)c2-c2nc3ccc(Cl)cc3[nH]2)C(C)C)cc1)C(C)C [Compound 97] | – | – | – | 4.5 | 0.3 | 35
CCC(C)C(C(CC(=O)N1CCCC1C(OC)C(C)C(=O)NC(C)C(O)c1ccccc1)OC)N(C)C(=O)C(NC(=O)C(C(C)C)N(C)C(=O)OCc1ccc(NC(=O)[C@H](CCCNC(N)=O)NC(=O)[C@@H](NC(=O)CCOCCOCCC(=O)NCCNc2ncc(-c3cc(C)cc(F)c3)c(N3CCC(N)CC3)c2-c2nc3ccc(Cl)cc3[nH]2)C(C)C)cc1)C(C)C (stereo in doubt) [Compound 24] | – | – | – | 12 | 0.2 | 13.4
